According to patent US20230271950A1, “ANTIBACTERIAL PICOLINAMIDE COMPOUNDS” (University of Notre Dame Du Lac, priority 2020, published 2023):
Values after ≈ are worked out from the molar mass of the structure shown. Read-outs that look alike come from different tables or passages of the source.

Legend:
Veillonella sp. HM-49 = assay: MIC against gut bacterium Veillonella sp.; format: cell-based
E. faecium NCTC7171 = assay: MIC against E. faecium; format: cell-based, Enterococcus faecium; details: Enterococcus faecium; E. faecium NCTC7171; Table 1; read-out: MIC
Lactobacillus gasseri = assay: MIC against gut bacterium Lactobacillus gasseri; format: cell-based
Fusobacterium nucleatum = assay: MIC against gut bacterium Fusobacterium nucleatum; format: cell-based; details: Fusobacterium nucleatum, Fusobacterium nucleatum strain HM-992, read-out: MIC
Bacteroides fragilis = assay: MIC against gut bacterium Bacteroides fragilis; format: cell-based; details: Bacteroides fragilis, Bacteroides fragilis strain HM-709, read-out: MIC
C. difficile = assay: MIC by broth microdilution against C. difficile strains; format: cell-based, Clostridioides difficile

Structure (SMILES): CCc1c(Cl)c(O)c(Cl)c(O)c1C(=O)O[C@H]1[C@H](O)[C@H](OC)[C@H](OC/C2=C\C=C\C[C@H](O)/C(C)=C/[C@H](CC)[C@@H](O[C@@H]3OC(C)(C)[C@@H](OC(=O)C(C)C)[C@H](O)[C@@H]3O)/C(C)=C/C(C)=C/C[C@@H]([C@@H](C)O)OC2=O)O[C@@H]1C [FDX, fidaxomicin, reference compound]
- MIC (Veillonella sp. HM-49; SP.HM49, Veillonella sp. HM-49, Table 1, read-out: MIC): 8 µg/mL (≈ 7.56 µM)
- MIC (Veillonella sp. HM-49; Veillonella sp. strain HM-49, Table 7): 8 µg/mL (≈ 7.56 µM)
- MIC (E. faecium NCTC7171): 2 µg/mL (≈ 1.89 µM)
- MIC (Lactobacillus gasseri; Lactobacillus gasseri strain HM-644, Table 7): 2 µg/mL (≈ 1.89 µM)
- MIC (Lactobacillus gasseri; Lactobacillus gasseri, Lactobacillus gasser strain HM-644, Table 1, read-out: MIC): 2 µg/mL (≈ 1.89 µM)
- MIC (Fusobacterium nucleatum; Table 1): < 0.06 µg/mL
- MIC (Fusobacterium nucleatum; Table 7): < 0.0625 µg/mL
- MIC (Bacteroides fragilis; Table 1): > 32 µg/mL
- MIC (Bacteroides fragilis; Table 7): > 32 µg/mL
- selectivity toward C. difficile relative to MRSA (C. difficile; C. difficile ATCC43255 relative to MRSA NRS70): 128 fold
- MIC (C. difficile; C. difficile BAA-1801, Table 9): 0.125 µg/mL (≈ 0.118 µM)
- MIC (C. difficile; C. difficile HM-745, Table 9): 0.125 µg/mL (≈ 0.118 µM)
- MIC (C. difficile; C. difficile NR49318, Table 9): 0.125 µg/mL (≈ 0.118 µM)
- MIC (C. difficile; C. difficile NR-13431, Table 9): 0.125 µg/mL (≈ 0.118 µM)
- MIC (C. difficile; C. difficile NR-13433, Table 9): 0.125 µg/mL (≈ 0.118 µM)
- MIC (C. difficile; C. difficile NR-13436, Table 9): 0.125 µg/mL (≈ 0.118 µM)
- MIC (C. difficile; C. difficile NR-32883, Table 9): 0.125 µg/mL (≈ 0.118 µM)
- MIC (C. difficile; C. difficile NR-32887, Table 9): 0.125 µg/mL (≈ 0.118 µM)
- MIC (C. difficile; C. difficile NR-49280, Table 9): 0.125 µg/mL (≈ 0.118 µM)
- MIC (C. difficile; C. difficile NR-49298, Table 9): 0.125 µg/mL (≈ 0.118 µM)
- MIC (C. difficile; C. difficile NR-49299, Table 9): 0.125 µg/mL (≈ 0.118 µM)
- MIC (C. difficile; C. difficile NR-49308, Table 9): 0.125 µg/mL (≈ 0.118 µM)
- MIC (C. difficile; C. difficile NR-49312, Table 9): 0.125 µg/mL (≈ 0.118 µM)
- MIC (C. difficile; C. difficile NR-49316, Table 9): 0.125 µg/mL (≈ 0.118 µM)
- MIC (C. difficile; C. difficile NR-49319, Table 9): 0.125 µg/mL (≈ 0.118 µM)
- MIC (C. difficile; C. difficile NR-49320, Table 9): 0.125 µg/mL (≈ 0.118 µM)
- MIC (C. difficile; C. difficile NR-49321, Table 9): 0.125 µg/mL (≈ 0.118 µM)
- MIC (C. difficile; Clostridioides difficile): 0.125 µg/mL (≈ 0.118 µM)
- MIC (C. difficile; Clostridioides difficile, ATCC43255, C. difficile ATCC43255 (TcdA+, TcdB+), Table 1, read-out: MIC): 0.06 µg/mL (≈ 0.0567 µM)
- MIC (C. difficile; Clostridioides difficile, ATCC43255, C. difficile ATCC43255, Table 7, read-out: MIC): 0.0625 µg/mL (≈ 0.0591 µM)
- MIC (C. difficile; Clostridioides difficile, ATCC43255, C. difficile ATCC43255, Table 9, read-out: MIC): 0.06 µg/mL (≈ 0.0567 µM)
- MIC (C. difficile; Clostridioides difficile, ATCC43598, C. difficile ATCC43598, Table 7, read-out: MIC): 0.01 µg/mL (≈ 0.00945 µM)
- MIC (C. difficile; Clostridioides difficile, ATCC43598, C. difficile ATCC43598, Table 9, read-out: MIC): 0.01 µg/mL (≈ 0.00945 µM)
- MIC (C. difficile; Clostridioides difficile, BAA1801): 0.125 µg/mL (≈ 0.118 µM)
- MIC (C. difficile; Clostridioides difficile, BAA1803, C. difficile BAA-1803, Table 7, read-out: MIC): 1 µg/mL (≈ 0.945 µM)
- MIC (C. difficile; Clostridioides difficile, BAA1803, C. difficile BAA-1803, Table 9, read-out: MIC): 1 µg/mL (≈ 0.945 µM)
- MIC (C. difficile; Clostridioides difficile, BAA1804): 0.125 µg/mL (≈ 0.118 µM)
- MIC (C. difficile; Clostridioides difficile, BAA1804, C. difficile BAA-1804, Table 7, read-out: MIC): < 0.25 µg/mL
- MIC (C. difficile; Clostridioides difficile, BAA1812, C. difficile BAA-1812, Table 7, read-out: MIC): 0.015 µg/mL (≈ 0.0142 µM)
- MIC (C. difficile; Clostridioides difficile, BAA1812, C. difficile BAA-1812, Table 9, read-out: MIC): 0.015 µg/mL (≈ 0.0142 µM)
- MIC (C. difficile; Clostridioides difficile, BAA1814, C. difficile BAA-1814, Table 7, read-out: MIC): 0.03 µg/mL (≈ 0.0284 µM)
- MIC (C. difficile; Clostridioides difficile, BAA1814, C. difficile BAA-1814, Table 9, read-out: MIC): 0.03 µg/mL (≈ 0.0284 µM)
- MIC (C. difficile; Clostridioides difficile, BAA1870, C. difficile BAA-1870 (NAP1, ribotype 27), Table 1, read-out: MIC): 0.25 µg/mL (≈ 0.236 µM)
- MIC (C. difficile; Clostridioides difficile, BAA1870, C. difficile BAA-1870, Table 7, read-out: MIC): 0.25 µg/mL (≈ 0.236 µM)
- MIC (C. difficile; Clostridioides difficile, BAA1870, C. difficile BAA-1870, Table 9, read-out: MIC): 0.25 µg/mL (≈ 0.236 µM)
- MIC (C. difficile; Clostridioides difficile, C. difficile 23691 (VR, vancomycin-resistant), Table 7, read-out: MIC): 4 µg/mL (≈ 3.78 µM)
- MIC (C. difficile; Clostridioides difficile, C. difficile 23691, clinical isolate resistant to VAN, Table 1, read-out: MIC): 4 µg/mL (≈ 3.78 µM)
- MIC (C. difficile; Clostridioides difficile, C. difficile 23691, Table 9, read-out: MIC): 4 µg/mL (≈ 3.78 µM)
- MIC (C. difficile; Clostridioides difficile, C. difficile 23828 (FR, fidaxomicin-resistant), Table 7, read-out: MIC): > 8 µg/mL
- MIC (C. difficile; Clostridioides difficile, C. difficile 23828, clinical isolate resistant to FDX, Table 1, read-out: MIC): > 8 µg/mL
- MIC (C. difficile; Clostridioides difficile, C. difficile 23828, Table 9, read-out: MIC): > 8 µg/mL
- MIC (C. difficile; Clostridioides difficile, C. difficile 24531 (VR, vancomycin-resistant), Table 7, read-out: MIC): 0.01 µg/mL (≈ 0.00945 µM)
- MIC (C. difficile; Clostridioides difficile, C. difficile 24531, Table 9, read-out: MIC): 0.01 µg/mL (≈ 0.00945 µM)
- MIC (C. difficile; Clostridioides difficile, C. difficile 24923 (VR, vancomycin-resistant), Table 7, read-out: MIC): 0.0625 µg/mL (≈ 0.0591 µM)
- MIC (C. difficile; Clostridioides difficile, C. difficile 24923, Table 9, read-out: MIC): 0.06 µg/mL (≈ 0.0567 µM)
- MIC (C. difficile; Clostridioides difficile, C. difficile 26675 (MR, metronidazole-resistant), Table 7, read-out: MIC): 4 µg/mL (≈ 3.78 µM)
- MIC (C. difficile; Clostridioides difficile, C. difficile 26675, clinical isolate resistant to MTZ, Table 1, read-out: MIC): 4 µg/mL (≈ 3.78 µM)
- MIC (C. difficile; Clostridioides difficile, C. difficile 26675, Table 9, read-out: MIC): 4 µg/mL (≈ 3.78 µM)
- MIC (C. difficile; Clostridioides difficile, C. difficile 27081 (FR, fidaxomicin-resistant), Table 7, read-out: MIC): > 8 µg/mL
- MIC (C. difficile; Clostridioides difficile, C. difficile 27081, Table 9, read-out: MIC): > 8 µg/mL
- MIC (C. difficile; Clostridioides difficile, C. difficile 27173 (MR, metronidazole-resistant), Table 7, read-out: MIC): 0.01 µg/mL (≈ 0.00945 µM)
- MIC (C. difficile; Clostridioides difficile, C. difficile 27173, Table 9, read-out: MIC): 0.01 µg/mL (≈ 0.00945 µM)
- MIC (C. difficile; Clostridioides difficile, C. difficile HM-88, Table 9, read-out: MIC): 0.03 µg/mL (≈ 0.0284 µM)
- MIC (C. difficile; Clostridioides difficile, C. difficile HM-89, Table 9, read-out: MIC): 0.03 µg/mL (≈ 0.0284 µM)
- MIC (C. difficile; Clostridioides difficile, C. difficile HM-746, Table 9, read-out: MIC): ≤ 0.03 µg/mL
- MIC (C. difficile; Clostridioides difficile, C. difficile HM-747, Table 9, read-out: MIC): 0.06 µg/mL (≈ 0.0567 µM)
- MIC (C. difficile; Clostridioides difficile, C. difficile NR49292, Table 7, read-out: MIC): 0.5 µg/mL (≈ 0.473 µM)
- MIC (C. difficile; Clostridioides difficile, C. difficile NR49292, Table 9, read-out: MIC): 0.5 µg/mL (≈ 0.473 µM)
- MIC (C. difficile; Clostridioides difficile, C. difficile NR49294, Table 7, read-out: MIC): 0.01 µg/mL (≈ 0.00945 µM)
- MIC (C. difficile; Clostridioides difficile, C. difficile NR49294, Table 9, read-out: MIC): 0.01 µg/mL (≈ 0.00945 µM)
- MIC (C. difficile; Clostridioides difficile, C. difficile NR49302, Table 7, read-out: MIC): 0.03 µg/mL (≈ 0.0284 µM)
- MIC (C. difficile; Clostridioides difficile, C. difficile NR49302, Table 9, read-out: MIC): 0.03 µg/mL (≈ 0.0284 µM)
- MIC (C. difficile; Clostridioides difficile, C. difficile NR49305, Table 7, read-out: MIC): 0.01 µg/mL (≈ 0.00945 µM)
- MIC (C. difficile; Clostridioides difficile, C. difficile NR49305, Table 9, read-out: MIC): 0.01 µg/mL (≈ 0.00945 µM)
- MIC (C. difficile; Clostridioides difficile, C. difficile NR49310, Table 7, read-out: MIC): ≤ 0.01 µg/mL
- MIC (C. difficile; Clostridioides difficile, C. difficile NR49310, Table 9, read-out: MIC): ≤ 0.01 µg/mL
